Data reported in paper PMC8584173, “The Cytotoxic Effect of Copper (II) Complexes with Halogenated 1,3-Disubstituted Arylthioureas on Cancer and Bacterial Cells” (International Journal of Molecular Sciences, 2021).
“And” between values parts separate entries of the source, which are not always exact repeats. Equal entries are not always repeated.

Experiments:
[1] = test system: SW480, SW620, PC3 cancer cells; experiment: MTT cytotoxicity assay, all cancer cell lines; assay type: cell-based, human; details: span or bound over SW480, SW620, PC3; 72 h; read-out: IC50 over the tested cancer cell lines
Description: The human primary (SW480), metastatic (SW620) colon cancer, metastatic prostate cancer (PC3) and human immortal keratinocyte (HaCaT) cell lines were purchased from the American Type Culture Collection (ATCC, Rockville, USA). The cells were cultured in medium according to protocols (MEM for SW480 and SW620, RPMI 1640 for PC3 and DMEM for HaCaT cells) supplemented with 10% fetal bovine serum (FBS), penicillin (100 U/mL) and streptomycin (100 μg/mL) and cultured in 37 °C/ 5% CO2 humidified incubator. The cells were cultured until appropriate confluence was achieved (80–90%). Next, they were harvested by treatment with 0.25% trypsin (Gibco Life Technologies, USA) and used for studies.
Cells without studied compounds in medium were used as a control.
The cell viability was assessed by determination of MTT salt (3-(4,5-dimethylthiazol-2-yl)-2,5-diphenyltetrazolium bromide) conversion by mitochondrial dehydrogenase. MTT assay was performed as previously described. Experiments were repeated three times. Cell viability was presented as a percentage of MTT reduction in the treated cells versus the control cells. Number of viable cells cultured without studied compounds was assumed to be 100%. Decreased relative MTT level means decreased cell viability. Thiourea complexes with the highest cytotoxic potential assessed by MTT determination (with the lowest IC50) were chosen for subsequent assessments of cytotoxicity mechanisms.

[2] = test system: Glutathione S-transferase omega-1 (GSTO1_HUMAN); experiment: LC–MS proteome analysis, GSTO1; assay type: cell-based, Homo sapiens; details: IC50 concentration, % of control
Description: (§1) Enzymes involved in oxidoreductive potential were analyzed in the cell lysates obtained after treatment cells with selected conjugates for 24 h. Cells were washed with phosphate-buffered saline (PBS) and harvested, then centrifuged at 1000× g for 10 min. Then, lysis buffer (containing protease inhibitor, 1% RIPA Lysis and Extraction Buffer (ThermoFisher)) and cold PBS were added, and samples were sonicated three times in ice bath. Next, the cell lysates were centrifuged at 14,000× g at 4 °C for 15 min, and then supernatants were stored at […] before use. Protein concentration was measured by the Bradford method.
(§2) Normalized protein concentrations (5 µg) from cell lysate were precipitated by ice cold (–20 °C) acetonitrile (ACN, Merck, in ratio 1:4). Then, samples were centrifuged (–9 °C, 30 min., 18,000× g), the supernatant was discarded and ACN excess was evaporated using a vacuum centrifuge (5 min., room temp.). Protein pellet was dissolved in 40 mM ammonium bicarbonate. An amount of 500 mM dithiothreitol (DTT, with final concentration 20 mM) and 1 M iodoacetamide (IAA, with final concentration 40 mM) were used for reduction and alkylation processes. After 16 h of incubation in 37 °C with Trypsin Gold (Promega), digested protein samples were diluted with 0.1% formic acid (ThermoFisher) and centrifuged (+2 °C, 30 min, 18,000× g).
(§3) LC–MS analysis was carried out with the use of nanoUHPLC (nanoElute, Bruker) coupled by CaptiveSpray (Bruker) to ESI-Q-TOF mass spectrometer (Compact, Bruker). Two-column separation method was used, i.e., pre-column (300 µm × 5 mm, C18 PepMap 100, 5 µm, 100Å, Thermo Scientific) and Aurora separation column with CSI fitting (75 µm × 250 mm, C18 1.6 µm) in gradient 2% B to 35% B in 90 min with the 300 nL/min flow rate. Mobile phases (A) 0.1% formic acid in water and (B) 0.1% formic acid in ACN were used.
(§4) Sample ionizations were performed at a gas flow of 3.0 L/min, temperature of 150 °C and voltage of the capillary at 1600 V. The quadrupole energy was fixed to 5.0 eV and collision chamber energy 7.0 eV, with an ion transfer time of 90 µs. The ions were analyzed in the positive polarity mode in the range 150–2200 m/z, with the acquisition frequency of the 1 Hz spectrum, as well as with the autoMS/MS system.
(§5) The collected spectra were analyzed and calibrated using DataAnalysis software (Bruker) and then identified in ProteinScape (Bruker) by the MASCOT server. Protein identification was conducted using the online SwissProt and NCBIprot databases, and their references and biological significance were identified using Reactome.org, String.org and KEGG.

[3] = test system: Superoxide dismutase [Mn], mitochondrial (SODM_HUMAN); experiment: LC–MS proteome analysis, SODM; assay type: cell-based, Homo sapiens; details: IC50 concentration, % of control
Description: as §1, §2, §3, §4, §5

[4] = test system: Peroxiredoxin-5, mitochondrial (PRDX5_HUMAN); experiment: LC–MS proteome analysis, PRDX5; assay type: cell-based, Homo sapiens; details: IC50 concentration, % of control
Description: as §1, §2, §3, §4, §5

[5] = test system: Glutathione S-transferase A1 (GSTA1_HUMAN); experiment: LC–MS proteome analysis, GSTA1; assay type: cell-based, Homo sapiens; details: for Protein Intensity, % (GSTA1): IC50 concentration, % of control; for decrease in the amount of GSTA1: SW620, IC50 concentration
Description: as §1, §2, §3, §4, §5

[6] = test system: PC3 cells; experiment: LDH release assay, PC3; assay type: cell-based, human; details: 72 h
Description: (§6) The presence of lactate dehydrogenase (LDH) in culture medium indicates a disturbance of the integrity of the cellular membrane. The LDH activity was performed after 72 h incubation of cells (1 × 10^4 cells per well) in 96-well plates with selected compounds according to manufacturer’s protocol (Roche Diagnostics, Germany), as was described by Chrzanowska et al.. Compound mediated cytotoxicity was determined using equation: ((A test sample−A low control)/ (A high control−A low control)) × 100% (A-absorbance), where “low control” means cells in medium with 2% FBS without tested compounds, and “high control” means cells incubated in medium with 2% FBS and 1% Triton X-100 (100% LDH release). The cytotoxicity was expressed as percentage of LDH release as compared with the maximum release of LDH from Triton-X-100-treated cells.

[7] = test system: SW480 cells; experiment: LDH release assay, SW480; assay type: cell-based, human; details: 72 h
Description: as §6

Row | Compound | IC50 [1] | Protein Intensity, % (GSTO1) ([2]; PC3, 24 h) | Protein Intensity, % (GSTO1) ([2]; SW480, 24 h) | Protein Intensity, % (GSTO1) ([2]; SW620, 24 h) | Protein Intensity, % (SODM) ([3]; PC3, 24 h) | Protein Intensity, % (SODM) ([3]; SW480, 24 h) | Protein Intensity, % (SODM) ([3]; SW620, 24 h) | Protein Intensity, % (PRDX5) ([4]; PC3, 24 h) | Protein Intensity, % (PRDX5) ([4]; SW480, 24 h) | Protein Intensity, % (PRDX5) ([4]; SW620, 24 h) | Protein Intensity, % (GSTA1) ([5]; PC3, 24 h) | Protein Intensity, % (GSTA1) ([5]; SW480, 24 h) | Protein Intensity, % (GSTA1) ([5]; SW620, 24 h) | decrease in the amount of GSTA1 [5] | LDH release ([6]; PC3, 10 μM) | LDH release ([6]; PC3, 40 μM) | LDH release ([6]; PC3, 60 μM) | LDH release ([7]; SW480, 20 μM) | LDH release ([7]; SW480, 40 μM) | LDH release ([7]; SW480, 60 μM)
1 | O=[N+]([O-])c1cc([N+]2=C(Nc3ccc(Cl)c(Cl)c3)[S][Cu-2]23[S]C(Nc2ccc(Cl)c(Cl)c2)=[N+]3c2ccc(Cl)c([N+](=O)[O-])c2)ccc1Cl [Compound 5, Copper (II) complex with 1-(4-chloro-3-nitrophenyl)-3-(3,4-dichlorophenyl)thiourea] | ≤ 10 µM |  |  |  |  |  |  |  |  |  |  |  |  |  |  |  |  |  |  | 
2 | O=[N+]([O-])c1cc(NC2=[N+](c3ccc(Cl)c([N+](=O)[O-])c3)[Cu-2]3([S]2)[S]C(Nc2ccc(Cl)c([N+](=O)[O-])c2)=[N+]3c2ccc(Cl)c([N+](=O)[O-])c2)ccc1Cl [Compound 6, Copper (II) complex with 1,3-bis(4-chloro-3-nitrophenyl)thiourea] | ≥ 20.3 µM |  |  |  |  |  |  |  |  |  |  |  |  |  |  |  |  |  |  | 
3 | O=[N+]([O-])c1cc([N+]2=C(Nc3ccccc3F)[S][Cu-2]23[S]C(Nc2ccccc2F)=[N+]3c2ccc(Cl)c([N+](=O)[O-])c2)ccc1Cl [Compound 7, Copper (II) complex with 1-(2-fluorophenyl)-3-(4-chloro-3-nitrophenyl)thiourea] | ≤ 10 µM | 68.6% | 45.1% | 52.5% | 25.2% | 65.1% | 45.3% | 36.7% | 91.0% | 81.4% | 79.2% | 75.6% | 36.4% |  |  |  |  |  |  | 
4 | O=[N+]([O-])c1cc([N+]2=C(Nc3ccc(Br)cc3)[S][Cu-2]23[S]C(Nc2ccc(Br)cc2)=[N+]3c2ccc(Cl)c([N+](=O)[O-])c2)ccc1Cl [Compound 3, Copper (II) complex with 1-(4-bromophenyl)-3-(4-chloro-3-nitrophenyl)thiourea] | ≤ 10 µM | 64.0% | 66.0% | 77.0% | 31.2% | 77.7% | 77.1% | 40.9% | 84.8% | 82.4% | 70.6% | 86.6% | 45.2% | 54.8% |  |  |  |  |  | 
5 | O=[N+]([O-])c1cc([N+]2=C(Nc3ccccc3Br)[S][Cu-2]23[S]C(Nc2ccccc2Br)=[N+]3c2ccc(Cl)c([N+](=O)[O-])c2)ccc1Cl [Compound 1, Copper (II) complex with 1-(2-bromophenyl)-3-(4-chloro-3-nitrophenyl)thiourea] |  | 65.0% | 70.9% | 85.5% | 29% and 29.1% | 67.8% | 88.8% | 29% and 29.3% | 77.3% | 88.3% | 84.4% | 78.3% | 50.2% |  |  |  |  |  |  | 
6 | O=[N+]([O-])c1cc([N+]2=C(Nc3ccc(I)cc3)[S][Cu-2]23[S]C(Nc2ccc(I)cc2)=[N+]3c2ccc(Cl)c([N+](=O)[O-])c2)ccc1Cl [Compound 8, Copper (II) complex with 1-(4-iodophenyl)-3-(4-chloro-3-nitrophenyl)thiourea] |  | 31.6% | 52.4% | 65.0% | 29.4% | 94.3% | 92.7% | 42.0% | 81.7% | 74.4% | 73.5% | 91.6% | 54.3% | 45.7% | 27.2% | 56.4% | 64% | 42% | 46.4% | 58%
